Data from US20090060984A1, “ANIONIC SURFACTANTS LETHAL TO GRAM-POSITIVE BACTERIA” (priority 2007, published 2009).
“And” between values parts separate entries of the source, which are not always exact repeats. Equal entries are not always repeated. Where two headings read alike, the source gives them in different places.

Legend:
E. coli = assay type: cell-based, Escherichia coli; settings: 24 h contact time
Experimental: Escherichia coli ATCC 11229 (Culti-loops, Remel Europe, Dartford, Kent, UK) and Pseudomonas aeruginosa ATCC 15442 (Cuti-loops, Remel Europe, Dartford, Kent, UK) were selected as model Gram-negative organisms for the challenge testing of the antimicrobial coatings. Each bacterial strain was streaked for isolated colonies on Tryptic Soy Agar (TSA) plates (Difco, Becton Dickinson, Sparks, Md., U.S.A.) and incubated at 37° C. for 12 to 18 hours. Broth cultures were prepared by first picking 1-2 isolated colonies from TSA plates and inoculating 5 mL Tryptic Soy Broth (TSB; Difco, Becton Dickinson, Sparks, Md., U.S.A.) in a 16 mm test tube. This culture was grown in a shaking water bath at 150 RPM for 8 hours at 37° C. After the eight hours, 125 μL of this culture was added to 50 mL of TSB in a side-arm Klett flask and grown for approximately 8 hours in shaking water bath (150 RPM) at 37° C. The bacterial broths were grown to an A590 of 1.2-1.5, which correlated to approximately 10^9 CFU (colony forming units)/mL. 25 mL of this broth were transferred to a sterile 30 mL Oakridge tube and centrifuged at 12,000×g for 10 minutes at 4° C. (Sorval SS34 rotor) to pelletize the bacteria. The bacterial pellet was washed once and resuspended in 25 mL of phosphate buffer solution (PBS; BBL, FTA Hemaglutination Buffer, Becton Dickinson, Sparks, Md., U.S.A.). The suspension was diluted with PBS to achieve the target range of 10^5-10^6 CFU/mL and used to inoculate the slides containing antibacterial coatings.
Xylene/methanol (5:1 by weight) is used to dissolve the silver surfactants to facilitate homogeneously mixing with the alkyd resin composition.
A minus sign (−) denotes no growth, a plus sign (+) denotes confluent growth, and a capital P (P) denotes […].
Xylene/methanol (5:1 by weight) is used to dissolve the silver surfactants to facilitate homogeneously mixing with the acrylic resin composition.
The same laboratory experimental solvent based acrylic paint described in Example 34 is used to challenge E. coli by adding various levels of the invention silver anionic surfactants as described in Example 34.
A commercially available 2K epoxy resin paint is obtained from a local paint store (Sherwin Williams High Solids Epoxy Tile Clad HS; Part A B62WC11; Part B B60VZ75, The Sherwin Williams Company) and the same silver anionic surfactants described in Example 35 are used to prepare test coatings on microscope slides containing various levels of silver ion. These surfactants are dissolved in xylene/methanol (5:1 by weight) to facilitate their quantitative addition to the coating mixture.

Micrococcus luteus = assay: Growth on surfactant/TSA agar plates; assay type: cell-based; settings: Micrococcus luteus strain EM17
[1] = system: Staphylococcus epidermidis; assay: Growth on surfactant/TSA agar plates; assay type: cell-based; settings: Staphylococcus epidermidis strain EM3/ATCC12228
Staphylococcus aureus = assay: Growth on surfactant/TSA agar plates; assay type: cell-based; note: test concentration or dose not given here
Enterococcus fecalis = assay: Growth on surfactant/TSA agar plates; assay type: cell-based; note: test concentration or dose not given here
Bacillus subtilis = assay: Growth on surfactant/TSA agar plates; assay type: cell-based; note: test concentration or dose not given here
Streptococcus pyogenes = assay: Growth on surfactant/TSA agar plates; assay type: cell-based; settings: Streptococcus pyogenes strain EM14; note: test concentration or dose not given here
Streptococcus bovis = assay: Growth on surfactant/TSA agar plates; assay type: cell-based; settings: Streptococcus bovis strain EM12
Streptococcus viridans = assay: Growth on surfactant/TSA agar plates; assay type: cell-based; settings: Streptococcus viridans strain EM8
Streptococcus agalactiae = assay: Growth on surfactant/TSA agar plates; assay type: cell-based; settings: Streptococcus agalactiae strain EM13
[2] = laboratory solvent based acrylic paint
[3] = Staphylococcus aureus strain ATCC6538
[4] = Staphylococcus aureus strain EM24/ATCC25923
[5] = Enterococcus fecalis strain EM19 (first listing)
[6] = Enterococcus fecalis strain EM19 (second listing)
[7] = Bacillus subtilis strain ATCC33

CCCCCCCCCCCCOS(=O)(=O)[O-].[Ag+] [AgDS, Silver dodecylsufate]
E. coli growth on coating (E. coli; alkyd resin paint, 0.0012 weight % Ag in coating): +
E. coli growth on coating (E. coli; alkyd resin paint, 0.003 weight % Ag in coating): +
E. coli growth on coating (E. coli; alkyd resin paint, 0.006 weight % Ag in coating): +
E. coli growth on coating (E. coli; alkyd resin paint, 0.012 weight % Ag in coating): +
E. coli growth on coating (E. coli; alkyd resin paint, 0.03 weight % Ag in coating): −
E. coli growth on coating (E. coli; alkyd resin paint, 0.06 weight % Ag in coating): −
E. coli growth on coating (E. coli; alkyd resin paint, 0.12 weight % Ag in coating): −
E. coli growth on coating (E. coli; commercial 2K epoxy paint, 0.0012 weight % Ag in coating): +
E. coli growth on coating (E. coli; commercial 2K epoxy paint, 0.003 weight % Ag in coating): +
E. coli growth on coating (E. coli; commercial 2K epoxy paint, 0.006 weight % Ag in coating): +
E. coli growth on coating (E. coli; commercial 2K epoxy paint, 0.03 weight % Ag in coating): −
E. coli growth on coating (E. coli; commercial 2K epoxy paint, 0.06 weight % Ag in coating): −
E. coli growth on coating (E. coli; commercial 2K epoxy paint, 0.12 weight % Ag in coating): −
Silver level giving complete inhibition of growth (E. coli; commercial 2K epoxy paint): 0.03 % w/w
Silver level partially effective (E. coli; commercial 2K epoxy paint): 0.012 % w/w
E. coli growth on coating (E. coli; commercial solvent borne acrylate paint, 0.0012 weight % Ag in coating): +
E. coli growth on coating (E. coli; commercial solvent borne acrylate paint, 0.003 weight % Ag in coating): +
E. coli growth on coating (E. coli; commercial solvent borne acrylate paint, 0.006 weight % Ag in coating): +
E. coli growth on coating (E. coli; commercial solvent borne acrylate paint, 0.012 weight % Ag in coating): +
E. coli growth on coating (E. coli; commercial solvent borne acrylate paint, 0.03 weight % Ag in coating): −
E. coli growth on coating (E. coli; commercial solvent borne acrylate paint, 0.06 weight % Ag in coating): −
E. coli growth on coating (E. coli; commercial solvent borne acrylate paint, 0.12 weight % Ag in coating): −
Silver level effective at preventing any growth (E. coli; commercial solvent borne acrylic paint): completely effective at this lower level
Silver level preventing any growth (E. coli; [2]): 0.03 % w/w
Silver level with partial inhibition (E. coli; [2]): 0.012%
E. coli growth on coating (E. coli; laboratory solvent borne acrylate paint, 0.0012 weight % Ag in coating): +
E. coli growth on coating (E. coli; laboratory solvent borne acrylate paint, 0.003 weight % Ag in coating): +
E. coli growth on coating (E. coli; laboratory solvent borne acrylate paint, 0.006 weight % Ag in coating): +
E. coli growth on coating (E. coli; laboratory solvent borne acrylate paint, 0.03 weight % Ag in coating): −
E. coli growth on coating (E. coli; laboratory solvent borne acrylate paint, 0.06 weight % Ag in coating): −
E. coli growth on coating (E. coli; laboratory solvent borne acrylate paint, 0.12 weight % Ag in coating): −

CCCCC(CC)COC(=O)CC(C(=O)OCC(CC)CCCC)S(=O)(=O)[O-].[Na+] (stereo not shown) [Compound S1]
No Growth(−)/Full Growth(+), replicate columns (Micrococcus luteus): −
No Growth(−)/Full Growth(+), replicate columns [1]: −
No Growth(−)/Full Growth(+), replicate columns (Staphylococcus aureus; [3]): −
No Growth(−)/Full Growth(+), replicate columns (Staphylococcus aureus; [4]): −
No Growth(−)/Full Growth(+), replicate columns (Enterococcus fecalis; [5]): −
No Growth(−)/Full Growth(+), replicate columns (Enterococcus fecalis; [6]): −
No Growth(−)/Full Growth(+), replicate columns (Bacillus subtilis; [7]): −
No Growth(−)/Full Growth(+), replicate columns (Bacillus subtilis; Bacillus subtilis strain EM27): −
No Growth(−)/Full Growth(+), replicate columns (Streptococcus pyogenes): −
No Growth(−)/Full Growth(+), replicate columns (Streptococcus bovis): −
No Growth(−)/Full Growth(+), replicate columns (Streptococcus viridans): −
No Growth(−)/Full Growth(+), replicate columns (Streptococcus agalactiae): −

CCCCC(CC)COP(=O)([O-])OCCC(CC)CCC.[Na+] (stereo not shown) [Compound S2]
No Growth(−)/Full Growth(+), replicate columns (Micrococcus luteus): −
No Growth(−)/Full Growth(+), replicate columns [1]: −
No Growth(−)/Full Growth(+), replicate columns (Staphylococcus aureus; [3]): −
No Growth(−)/Full Growth(+), replicate columns (Staphylococcus aureus; [4]): −
No Growth(−)/Full Growth(+), replicate columns (Enterococcus fecalis; [5]): −
No Growth(−)/Full Growth(+), replicate columns (Enterococcus fecalis; [6]): −
No Growth(−)/Full Growth(+), replicate columns (Bacillus subtilis; [7]): −
No Growth(−)/Full Growth(+), replicate columns (Bacillus subtilis; Bacillus subtilis strain EM27): −
No Growth(−)/Full Growth(+), replicate columns (Streptococcus pyogenes): −
No Growth(−)/Full Growth(+), replicate columns (Streptococcus bovis): −
No Growth(−)/Full Growth(+), replicate columns (Streptococcus viridans): −
No Growth(−)/Full Growth(+), replicate columns (Streptococcus agalactiae): −

CCCCCCCCCCCCCCCCCCNC(=O)CC(C(=O)[O-])S(=O)(=O)[O-].[Na+].[Na+] (stereo not shown) [Compound S3]
No Growth(−)/Full Growth(+), replicate columns (Micrococcus luteus): −
No Growth(−)/Full Growth(+), replicate columns [1]: −
No Growth(−)/Full Growth(+), replicate columns (Staphylococcus aureus; [3]): −
No Growth(−)/Full Growth(+), replicate columns (Staphylococcus aureus; [4]): −
No Growth(−)/Full Growth(+), replicate columns (Enterococcus fecalis; [5]): −
No Growth(−)/Full Growth(+), replicate columns (Enterococcus fecalis; [6]): +
No Growth(−)/Full Growth(+), replicate columns (Bacillus subtilis; [7]): −
No Growth(−)/Full Growth(+), replicate columns (Bacillus subtilis; Bacillus subtilis strain EM27): −
No Growth(−)/Full Growth(+), replicate columns (Streptococcus pyogenes): −
No Growth(−)/Full Growth(+), replicate columns (Streptococcus bovis): −
No Growth(−)/Full Growth(+), replicate columns (Streptococcus viridans): +
No Growth(−)/Full Growth(+), replicate columns (Streptococcus agalactiae): −

CC(C)CC(C)OC(=O)CC(C(=O)OC(C)CC(C)C)S(=O)(=O)[O-].[Na+] (stereo not shown) [Compound S4]
No Growth(−)/Full Growth(+), replicate columns (Micrococcus luteus): − (2×) and +
No Growth(−)/Full Growth(+), replicate columns [1]: +
No Growth(−)/Full Growth(+), replicate columns (Staphylococcus aureus; [3]): +
No Growth(−)/Full Growth(+), replicate columns (Staphylococcus aureus; [4]): +
No Growth(−)/Full Growth(+), replicate columns (Enterococcus fecalis; [5]): +
No Growth(−)/Full Growth(+), replicate columns (Enterococcus fecalis; [6]): +
No Growth(−)/Full Growth(+), replicate columns (Bacillus subtilis; [7]): − and +
No Growth(−)/Full Growth(+), replicate columns (Bacillus subtilis; Bacillus subtilis strain EM27): +
No Growth(−)/Full Growth(+), replicate columns (Streptococcus pyogenes): −
No Growth(−)/Full Growth(+), replicate columns (Streptococcus bovis): −
No Growth(−)/Full Growth(+), replicate columns (Streptococcus viridans): +
No Growth(−)/Full Growth(+), replicate columns (Streptococcus agalactiae): − and +
